Tests used:
Test in all cases: relative viability (nuclei count vs DMSO), 5 days (fraction); higher = more cells survive
NCI-H3122 = system: NCI-H3122
How it was run: (§1)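 Medians of duplicate plates are given as relative viability. That measure is the nuclei count in treated wells divided by the count in vehicle wells. Counts were taken on 4× images of lung cancer cell lines in 1536-well plates, 5 days after pin-tool dosing the day after seeding with one drug alone or a fixed anchor-drug dose plus five library-drug doses (not always all listed) in √10 steps.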

H3255 = system: H3255
How it was run: as §1

LK-2 = system: LK-2
How it was run: as §1

EKVX = system: EKVX
How it was run: as §1

LXF-289 = system: LXF-289
How it was run: as §1

UMC-11 = system: UMC-11
How it was run: as §1

NCI-H1993 = system: NCI-H1993
How it was run: as §1

ChaGo-K-1 = system: ChaGo-K-1
How it was run: as §1

LCLC-97TM1 = system: LCLC-97TM1
How it was run: as §1

HCC-827 = system: HCC-827
How it was run: as §1

NCI-H441 = system: NCI-H441
How it was run: as §1

NCI-H2170 = system: NCI-H2170
How it was run: as §1

NCI-H2228 = system: NCI-H2228
How it was run: as §1

PC-3 [JPC-3] = system: PC-3 [JPC-3]
How it was run: as §1

NCI-H1650 = system: NCI-H1650
How it was run: as §1

SW 1573 = system: SW 1573
How it was run: as §1

NCI-H2405 = system: NCI-H2405
How it was run: as §1

NCI-H522 = system: NCI-H522
How it was run: as §1

SK-LU-1 = system: SK-LU-1
How it was run: as §1

HOP-62 = system: HOP-62
How it was run: as §1

NCI-H1355 = system: NCI-H1355
How it was run: as §1

LU99A = system: LU99A
How it was run: as §1

EPLC-272H = system: EPLC-272H
How it was run: as §1

SMILES: CN1CCN(CCOc2cc(OC3CCOCC3)c3c(Nc4c(Cl)ccc5c4OCO5)ncnc3c2)CC1 [Saracatinib] + CC(=O)Nc1cccc(-n2c(=O)n(C3CC3)c(=O)c3c(Nc4ccc(I)cc4F)n(C)c(=O)c(C)c32)c1 [Trametinib] (partner 0.02 µM)
- relative viability (NCI-H3122; first compound 0.02 µM): 0.212
- relative viability (NCI-H3122; first compound 0.2 µM): 0.163
- relative viability (NCI-H3122; first compound 0.6325 µM): 0.154
- relative viability (NCI-H3122; first compound 2 µM): 0.155
- relative viability (H3255; first compound 0.02 µM): 0.636
- relative viability (H3255; first compound 0.2 µM): 0.665
- relative viability (H3255; first compound 0.6325 µM): 0.663
- relative viability (H3255; first compound 2 µM): 0.27
- relative viability (LK-2; first compound 0.02 µM): 0.725
- relative viability (LK-2; first compound 0.2 µM): 0.736
- relative viability (LK-2; first compound 0.6325 µM): 0.722
- relative viability (LK-2; first compound 2 µM): 0.614
- relative viability (EKVX; first compound 0.02 µM): 0.274
- relative viability (EKVX; first compound 0.6325 µM): 0.37
- relative viability (EKVX; first compound 2 µM): 0.163
- relative viability (LXF-289; first compound 0.02 µM): 0.677
- relative viability (LXF-289; first compound 0.2 µM): 0.644
- relative viability (LXF-289; first compound 0.6325 µM): 0.655
- relative viability (LXF-289; first compound 2 µM): 0.685
- relative viability (UMC-11; first compound 0.02 µM): 0.763
- relative viability (UMC-11; first compound 0.2 µM): 0.586
- relative viability (UMC-11; first compound 0.6325 µM): 0.911
- relative viability (UMC-11; first compound 2 µM): 0.641
- relative viability (NCI-H1993; first compound 0.02 µM): 0.539
- relative viability (NCI-H1993; first compound 0.2 µM): 0.518
- relative viability (NCI-H1993; first compound 0.6325 µM): 0.528
- relative viability (NCI-H1993; first compound 2 µM): 0.5
- relative viability (ChaGo-K-1; first compound 0.02 µM): 0.935
- relative viability (ChaGo-K-1; first compound 0.2 µM): 0.566
- relative viability (ChaGo-K-1; first compound 0.6325 µM): 0.906
- relative viability (ChaGo-K-1; first compound 2 µM): 0.84
- relative viability (LCLC-97TM1; first compound 0.02 µM): 0.222
- relative viability (LCLC-97TM1; first compound 0.2 µM): 0.21
- relative viability (LCLC-97TM1; first compound 0.6325 µM): 0.223
- relative viability (LCLC-97TM1; first compound 2 µM): 0.275
- relative viability (HCC-827; first compound 0.02 µM): 0.542
- relative viability (HCC-827; first compound 0.2 µM): 0.306
- relative viability (HCC-827; first compound 0.6325 µM): 0.225
- relative viability (HCC-827; first compound 2 µM): 0.156
- relative viability (NCI-H441; first compound 0.02 µM): 0.514
- relative viability (NCI-H441; first compound 0.2 µM): 0.487
- relative viability (NCI-H441; first compound 0.6325 µM): 0.507
- relative viability (NCI-H441; first compound 2 µM): 0.339
- relative viability (NCI-H2170; first compound 0.02 µM): 0.917
- relative viability (NCI-H2170; first compound 0.2 µM): 0.859
- relative viability (NCI-H2170; first compound 0.6325 µM): 0.916
- relative viability (NCI-H2170; first compound 2 µM): 0.862
- relative viability (NCI-H2228; first compound 0.02 µM): 0.616
- relative viability (NCI-H2228; first compound 0.2 µM): 0.425
- relative viability (NCI-H2228; first compound 0.6325 µM): 0.703
- relative viability (NCI-H2228; first compound 2 µM): 0.465
- relative viability (PC-3 [JPC-3]; first compound 0.02 µM): 0.758
- relative viability (PC-3 [JPC-3]; first compound 0.2 µM): 0.587
- relative viability (PC-3 [JPC-3]; first compound 0.6325 µM): 0.534
- relative viability (PC-3 [JPC-3]; first compound 2 µM): 0.494
- relative viability (NCI-H1650; first compound 0.02 µM): 0.528
- relative viability (NCI-H1650; first compound 0.2 µM): 0.438
- relative viability (NCI-H1650; first compound 0.6325 µM): 0.505
- relative viability (NCI-H1650; first compound 2 µM): 0.291
- relative viability (SW 1573; first compound 0.02 µM): 0.507
- relative viability (SW 1573; first compound 0.2 µM): 0.598
- relative viability (SW 1573; first compound 0.6325 µM): 0.457
- relative viability (SW 1573; first compound 2 µM): 0.364
- relative viability (NCI-H2405; first compound 0.02 µM): 0.646
- relative viability (NCI-H2405; first compound 0.2 µM): 0.616
- relative viability (NCI-H2405; first compound 0.6325 µM): 0.444
- relative viability (NCI-H2405; first compound 2 µM): 0.406
- relative viability (NCI-H522; first compound 0.02 µM): 0.708
- relative viability (NCI-H522; first compound 0.2 µM): 0.745
- relative viability (NCI-H522; first compound 0.6325 µM): 0.788
- relative viability (NCI-H522; first compound 2 µM): 0.536
- relative viability (SK-LU-1; first compound 0.02 µM): 0.51
- relative viability (SK-LU-1; first compound 0.2 µM): 0.364
- relative viability (SK-LU-1; first compound 0.6325 µM): 0.375
- relative viability (SK-LU-1; first compound 2 µM): 0.301
- relative viability (HOP-62; first compound 0.02 µM): 0.412
- relative viability (HOP-62; first compound 0.2 µM): 0.455
- relative viability (HOP-62; first compound 0.6325 µM): 0.441
- relative viability (HOP-62; first compound 2 µM): 0.398
- relative viability (NCI-H1355; first compound 0.02 µM): 0.437
- relative viability (NCI-H1355; first compound 0.2 µM): 0.456
- relative viability (NCI-H1355; first compound 0.6325 µM): 0.439
- relative viability (NCI-H1355; first compound 2 µM): 0.441
- relative viability (LU99A; first compound 0.02 µM): 0.532
- relative viability (LU99A; first compound 0.2 µM): 0.473
- relative viability (LU99A; first compound 0.6325 µM): 0.565
- relative viability (LU99A; first compound 2 µM): 0.459
- relative viability (EPLC-272H; first compound 0.02 µM): 0.289
- relative viability (EPLC-272H; first compound 0.2 µM): 0.368
- relative viability (EPLC-272H; first compound 0.6325 µM): 0.283
- relative viability (EPLC-272H; first compound 2 µM): 0.287

— the supplement of paper PMC10307832
